# Assay results reported in PubChem BioAssay (NCI).
#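 Cultured in 96-well plates, cells were exposed to test compound for 48 hours across five concentrations. TGI: concentration producing complete growth inhibition.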
# Columns and labels:
# Experiment in all cases: growth of human tumour cells (NCI), 48 h
# 786-0 renal = system: 786-0 renal
# A498 renal = system: A498 renal
# A549 NSCLC = system: A549 NSCLC
# ACHN renal = system: ACHN renal
# CAKI-1 renal = system: CAKI-1 renal
# CCRF-CEM leukemia = system: CCRF-CEM leukemia
# COLO 205 colon = system: COLO 205 colon
# DMS 114 small cell lung = system: DMS 114 small cell lung
# DMS 273 small cell lung = system: DMS 273 small cell lung
# EKVX NSCLC = system: EKVX NSCLC
# HCC-2998 colon = system: HCC-2998 colon
# HCT-116 colon = system: HCT-116 colon
# HCT-15 colon = system: HCT-15 colon
# HL-60(TB) leukemia = system: HL-60(TB) leukemia
# HOP-18 NSCLC = system: HOP-18 NSCLC
# HOP-62 NSCLC = system: HOP-62 NSCLC
# HOP-92 NSCLC = system: HOP-92 NSCLC
# HT29 colon = system: HT29 colon
# IGROV1 ovarian = system: IGROV1 ovarian
# K-562 leukemia = system: K-562 leukemia
# KM12 colon = system: KM12 colon
# KM20L2 colon = system: KM20L2 colon
# LXFL 529 NSCLC = system: LXFL 529 NSCLC
# M14 melanoma = system: M14 melanoma
# M19-MEL melanoma = system: M19-MEL melanoma
# MALME-3M melanoma = system: MALME-3M melanoma
# MOLT-4 leukemia = system: MOLT-4 leukemia
# NCI-H23 lung = system: NCI-H23 lung
# NCI-H460 lung = system: NCI-H460 lung
# NCI-H522 lung = system: NCI-H522 lung
# OVCAR-3 ovarian = system: OVCAR-3 ovarian
# OVCAR-4 ovarian = system: OVCAR-4 ovarian
# OVCAR-5 ovarian = system: OVCAR-5 ovarian
# OVCAR-8 ovarian = system: OVCAR-8 ovarian
# RPMI-8226 leukemia = system: RPMI-8226 leukemia
# RXF 393 renal = system: RXF 393 renal
# SF-268 CNS = system: SF-268 CNS
# SF-295 CNS = system: SF-295 CNS
# SF-539 CNS = system: SF-539 CNS
# SK-MEL-2 melanoma = system: SK-MEL-2 melanoma
# SK-MEL-28 melanoma = system: SK-MEL-28 melanoma
# SK-MEL-5 melanoma = system: SK-MEL-5 melanoma
# SK-OV-3 ovarian = system: SK-OV-3 ovarian
# SN12C renal = system: SN12C renal
# SNB-19 CNS = system: SNB-19 CNS
# SNB-75 CNS = system: SNB-75 CNS
# SNB-78 CNS = system: SNB-78 CNS
# SW-620 colon = system: SW-620 colon
# TK-10 renal = system: TK-10 renal
# U251 CNS = system: U251 CNS
# UACC-257 melanoma = system: UACC-257 melanoma
# UACC-62 melanoma = system: UACC-62 melanoma
# UO-31 renal = system: UO-31 renal
# XF 498 CNS = system: XF 498 CNS
# DLD-1 colon = system: DLD-1 colon
# LOX IMVI melanoma = system: LOX IMVI melanoma
# NCI-H226 lung = system: NCI-H226 lung
# SR leukemia = system: SR leukemia
compound,measurement,setting,value
NC1=NC2=C(CCCC2)C(c2cccs2)S1 (centres undefined),TGI,786-0 renal,> 100 µM
same,TGI,A498 renal,> 100 µM
same,TGI,A549 NSCLC,> 100 µM
same,TGI,ACHN renal,> 100 µM
same,TGI,CAKI-1 renal,> 100 µM
same,TGI,CCRF-CEM leukemia,> 100 µM
same,TGI,COLO 205 colon,> 100 µM
same,TGI,DMS 114 small cell lung,> 100 µM
same,TGI,DMS 273 small cell lung,> 100 µM
same,TGI,EKVX NSCLC,> 100 µM
same,TGI,HCC-2998 colon,> 100 µM
same,TGI,HCT-116 colon,> 100 µM
same,TGI,HCT-15 colon,> 100 µM
same,TGI,HL-60(TB) leukemia,> 100 µM
same,TGI,HOP-18 NSCLC,> 100 µM
same,TGI,HOP-62 NSCLC,> 100 µM
same,TGI,HOP-92 NSCLC,> 100 µM
same,TGI,HT29 colon,> 100 µM
same,TGI,IGROV1 ovarian,> 100 µM
same,TGI,K-562 leukemia,> 100 µM
same,TGI,KM12 colon,> 100 µM
same,TGI,KM20L2 colon,> 100 µM
same,TGI,LXFL 529 NSCLC,> 100 µM
same,TGI,M14 melanoma,> 100 µM
same,TGI,M19-MEL melanoma,> 100 µM
same,TGI,MALME-3M melanoma,> 100 µM
same,TGI,MOLT-4 leukemia,> 100 µM
same,TGI,NCI-H23 lung,> 100 µM
same,TGI,NCI-H460 lung,> 100 µM
same,TGI,NCI-H522 lung,> 100 µM
same,TGI,OVCAR-3 ovarian,> 100 µM
same,TGI,OVCAR-4 ovarian,> 100 µM
same,TGI,OVCAR-5 ovarian,> 100 µM
same,TGI,OVCAR-8 ovarian,> 100 µM
same,TGI,RPMI-8226 leukemia,> 100 µM
same,TGI,RXF 393 renal,> 100 µM
same,TGI,SF-268 CNS,> 100 µM
same,TGI,SF-295 CNS,> 100 µM
same,TGI,SF-539 CNS,> 100 µM
same,TGI,SK-MEL-2 melanoma,> 100 µM
same,TGI,SK-MEL-28 melanoma,> 100 µM
same,TGI,SK-MEL-5 melanoma,> 100 µM
same,TGI,SK-OV-3 ovarian,> 100 µM
same,TGI,SN12C renal,> 100 µM
same,TGI,SNB-19 CNS,> 100 µM
same,TGI,SNB-75 CNS,> 100 µM
same,TGI,SNB-78 CNS,> 100 µM
same,TGI,SW-620 colon,> 100 µM
same,TGI,TK-10 renal,> 100 µM
same,TGI,U251 CNS,> 100 µM
same,TGI,UACC-257 melanoma,> 100 µM
same,TGI,UACC-62 melanoma,> 100 µM
same,TGI,UO-31 renal,74.3 µM
same,TGI,XF 498 CNS,> 100 µM
O=P(CCOc1ccccc1OCCP(=O)(c1ccccc1)c1ccc2c(c1)OCCOCCOCCOCCO2)(c1ccccc1)c1ccc2c(c1)OCCOCCOCCOCCO2 (centres undefined),TGI,786-0 renal,> 100 µM
same,TGI,A498 renal,> 100 µM
same,TGI,A549 NSCLC,> 100 µM
same,TGI,ACHN renal,> 100 µM
same,TGI,CCRF-CEM leukemia,> 100 µM
same,TGI,COLO 205 colon,> 100 µM
same,TGI,DLD-1 colon,> 100 µM
same,TGI,DMS 114 small cell lung,> 100 µM
same,TGI,DMS 273 small cell lung,> 100 µM
same,TGI,EKVX NSCLC,> 100 µM
same,TGI,HCC-2998 colon,> 100 µM
same,TGI,HCT-116 colon,> 100 µM
same,TGI,HCT-15 colon,> 100 µM
same,TGI,HL-60(TB) leukemia,> 100 µM
same,TGI,HOP-62 NSCLC,> 100 µM
same,TGI,HOP-92 NSCLC,> 100 µM
same,TGI,HT29 colon,> 100 µM
same,TGI,IGROV1 ovarian,> 100 µM
same,TGI,K-562 leukemia,> 100 µM
same,TGI,KM20L2 colon,> 100 µM
same,TGI,LOX IMVI melanoma,> 100 µM
same,TGI,LXFL 529 NSCLC,> 100 µM
same,TGI,M14 melanoma,> 100 µM
same,TGI,M19-MEL melanoma,> 100 µM
same,TGI,MALME-3M melanoma,> 100 µM
same,TGI,MOLT-4 leukemia,> 100 µM
same,TGI,NCI-H226 lung,> 100 µM
same,TGI,NCI-H23 lung,> 100 µM
same,TGI,NCI-H460 lung,> 100 µM
same,TGI,NCI-H522 lung,> 100 µM
same,TGI,OVCAR-3 ovarian,> 100 µM
same,TGI,OVCAR-4 ovarian,> 100 µM
same,TGI,OVCAR-5 ovarian,> 100 µM
same,TGI,OVCAR-8 ovarian,> 100 µM
same,TGI,RPMI-8226 leukemia,> 100 µM
same,TGI,RXF 393 renal,> 100 µM
same,TGI,SF-268 CNS,> 100 µM
same,TGI,SF-295 CNS,> 100 µM
same,TGI,SF-539 CNS,> 100 µM
same,TGI,SK-MEL-2 melanoma,> 100 µM
same,TGI,SK-MEL-28 melanoma,> 100 µM
same,TGI,SK-MEL-5 melanoma,> 100 µM
same,TGI,SK-OV-3 ovarian,> 100 µM
same,TGI,SN12C renal,> 100 µM
same,TGI,SNB-19 CNS,> 100 µM
same,TGI,SNB-75 CNS,> 100 µM
same,TGI,SNB-78 CNS,> 100 µM
same,TGI,SR leukemia,> 100 µM
same,TGI,SW-620 colon,> 100 µM
same,TGI,TK-10 renal,> 100 µM
same,TGI,U251 CNS,> 100 µM
same,TGI,UACC-257 melanoma,> 100 µM
same,TGI,UACC-62 melanoma,> 100 µM
same,TGI,UO-31 renal,> 100 µM
same,TGI,XF 498 CNS,> 100 µM
